According to US20140079636A1, “TARGETED THERAPEUTICS” (priority 2012, published 2014):

Test: Tissue distribution of SDC-TRAPs in plasma and tumor (Example 14 extraction procedure)
Details: in vivo; Tissue Distribution Data for SDC-TRAP-0076; Time 6 h; read-out: Tumor/Plasma Ratio
Description: In order to test the ability SDC-TRAP molecules of the invention to be specifically targeted to tumor cells, the following experiment was performed.
Using the 10 mM stock solutions of the HDC compound and its Hsp90i and drug conjugate in DMSO, spiking solutions were prepared at 0.025, 0.05, 0.1, 0.5, 1, 5, 10, 50, 100, 250, and 500 μM in DMSO. 5 μL of each spiking solution was added to a 96-deep well plate. 50 μL of matrix (plasma thawed over ice or homogenized blank tumor).
Quality control standards were prepared from 5 μL of 0.1, 1, and 10 μM calibration standard spiking solution added in triplicate into 96-deep well plate and adding 50 μL of matrix (plasma or homogenized tumor).
To prepare test samples, test plasma was diluted as needed using blank plasma. Tumor samples were pulverized in liquid nitrogen, weighed, and homogenized in PBS at 5× volume to sample weight. 50 μL of unknown plasma or homogenized tumor sample was mixed with 5 μL of DMSO. The samples were extracted by precipitating calibration standards, QC standards, and unknown samples with 200 μL of internal standard solution. The samples were mixed by vortex at room temperature for approximately 1.5 minutes, then centrifuge at 2-8° C. 150 μL of supernatant was collected and 25 μL of water added. Samples were mixed and analyzed by LC-MS/MS.

CCNC(=O)c1nnc(-c2cc(C(C)C)c(O)cc2O)n1-c1ccc(CN2CCC(C(=O)N3CCC(C(=O)OC4(CC)C(=O)OCc5c4cc4n(c5=O)Cc5c-4nc4ccc(O)cc4c5CC)CC3)CC2)cc1 (stereo not shown) [SDC-TRAP-0076, 4,11-diethyl-9-hydroxy-3,14-dioxo-3,4,12,14-tetrahydro-1H-pyrano[3′,4′:6,7]indolizino[1,2-b]quinolin-4-yl 1-(1-(4-(3-(2,4-dihydroxy-5-isopropylphenyl)-5-(ethylcarbamoyl)-4H-1,2,4-triazol-4-yl)benzyl)piperidine-4-carbonyl)piperidine-4-carboxylate]
Kp: 7.25
